Measured values from PMC5560858, “A lectin receptor kinase as a potential sensor for extracellular nicotinamide adenine dinucleotide in Arabidopsis thaliana” (eLife, 2017).

Target: T1, LecRK-I.8 (lectin receptor kinase-I.8, At5g60280) (Arabidopsis thaliana, UniProt Q9LSR9)
T1 construct: gene LECRK18; extracellular lectin domain (amino acids 23 to 283) fused to GFP (eLecRK-I.8-GFP)
Test: […]-NAD+ radioligand saturation binding to immunoprecipitated eLecRK-I.8-GFP; also competition, and binding to recombinant MBP-eLecRK-I.[…]

T1 sequence (Q9LSR9 23-283): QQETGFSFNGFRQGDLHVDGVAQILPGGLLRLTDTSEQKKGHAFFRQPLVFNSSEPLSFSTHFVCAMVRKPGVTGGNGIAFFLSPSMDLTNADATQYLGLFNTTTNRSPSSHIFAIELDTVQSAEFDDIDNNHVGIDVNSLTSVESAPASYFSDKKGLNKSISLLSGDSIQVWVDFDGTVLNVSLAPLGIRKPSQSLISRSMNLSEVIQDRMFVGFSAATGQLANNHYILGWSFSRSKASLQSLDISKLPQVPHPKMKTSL

Kd: 437 ± 105 nM
SMILES: NC(=O)c1ccc[n+]([C@@H]2O[C@H](COP(=O)([O-])OP(=O)(O)OC[C@H]3O[C@@H](n4cnc5c(N)ncnc54)[C@H](O)[C@@H]3O)[C@@H](O)[C@H]2O)c1 [NAD+]
